We go through 17 compounds from publication PMC10388311, “Innovative Strategy toward Mutant CFTR Rescue in Cystic Fibrosis: Design and Synthesis of Thiadiazole Inhibitors of the E3 Ligase RNF5” (Journal of Medicinal Chemistry, 2023).

This assay concerns the target F508del-CFTR in CFBE41o– cells (Homo sapiens, UniProt Q99942). The assay is described as follows: HS-YFP microfluorimetric assay of F508del-CFTR rescue (corrector activity). The class given is cell-based. The settings on record: CFBE41o– cells co-expressing F508del-CFTR and HS-YFP, 24 h treatment, Figure 5. On the procedure:
As a primary screen, the new thiadiazole derivatives 1–46 (Table 1) were tested for their ability to rescue the F508del-CFTR trafficking defect in CFBE41o^– cells, stably co-expressing F508del-CFTR and the HS-YFP (Figure 5). This cell line has been extensively used by our group, in combination with the microfluorimetric assay based on the HS-YFP, to identify and characterize many CFTR correctors.[39],[47] This assay relies on the hypothesis that RNF5 inhibition results in increased mutant CFTR processing and activity. Therefore, it can easily identify putative RNF5 inhibitors, but not other types of RNF5-binding compounds that could have no effect or have a negative effect on CFTR function, such as RNF5 activators (see analog-1). Thus, we opted for this assay as our primary aim was the identification of RNF5 inhibitors as a possible therapeutic strategy in CF. Twenty-four hours after seeding on 96-well plates, CFBE41o^– cells stably expressing F508del-CFTR and the HS-YFP were treated with test compounds at the desired concentration, one compound per well. Cells treated with vehicle alone (DMSO) and with corrector VX-809 (1 μM), respectively, served as negative and positive controls. At the time of the assay, cells were washed with PBS containing (in […]) 137 NaCl, 2.7 KCl, 8.1 Na2HPO4, 1.5 KH2PO4, 1 CaCl2, and 0.5 MgCl2. Cells were then incubated for 25 min with […] of PBS plus forskolin (20 μM) and VX-770 (1 μM) to maximally stimulate F508del-CFTR. Cells were then transferred to a microplate reader (FluoStar Galaxy; BMG Labtech, Offenburg, Germany) for CFTR activity determination. The plate reader was equipped with high-quality excitation (HQ500/20X: 500 ± 10 nm) and emission (HQ535/30M: 535 ± 15 nm) filters for YFP (Chroma Technology). Each assay comprised a continuous 14 s fluorescence reading and 2 s before and 12 s after injection of […] of an iodide-containing solution (PBS with Cl^– replaced by I^–; final I^– concentration […]). Data were normalized to the initial background-subtracted fluorescence. To determine the I^– influx rate, the final 11 s of the data for each well was fitted with an exponential function to extrapolate initial slope (dF/dt). Reproducibility of results was confirmed by performing three independent experiments. CFBE41o^– cells co-expressing F508del-CFTR and the HS-YFP were reverse-transfected with 50 nM (final concentration) siRNAs (Stealth, Life Technologies) in the presence of lipofectamine 2000 as a transfection agent. The following day, the medium was changed, and the cells were incubated at 37 °C for additional 24 h treated with test compounds at the desired concentration, prior to processing the cells for the YFP-based functional assay.

F508del-CFTR in CFBE41o– cells, sequence (Q99942 2-180): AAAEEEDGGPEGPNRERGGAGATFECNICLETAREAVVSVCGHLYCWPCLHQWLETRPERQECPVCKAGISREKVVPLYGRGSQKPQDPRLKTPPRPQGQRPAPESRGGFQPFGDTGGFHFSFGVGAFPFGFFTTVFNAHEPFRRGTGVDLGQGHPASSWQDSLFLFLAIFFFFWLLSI
F508del-CFTR in CFBE41o– cells, sequence (P13569 with tags, fused parts or gaps DEL508-508 partner): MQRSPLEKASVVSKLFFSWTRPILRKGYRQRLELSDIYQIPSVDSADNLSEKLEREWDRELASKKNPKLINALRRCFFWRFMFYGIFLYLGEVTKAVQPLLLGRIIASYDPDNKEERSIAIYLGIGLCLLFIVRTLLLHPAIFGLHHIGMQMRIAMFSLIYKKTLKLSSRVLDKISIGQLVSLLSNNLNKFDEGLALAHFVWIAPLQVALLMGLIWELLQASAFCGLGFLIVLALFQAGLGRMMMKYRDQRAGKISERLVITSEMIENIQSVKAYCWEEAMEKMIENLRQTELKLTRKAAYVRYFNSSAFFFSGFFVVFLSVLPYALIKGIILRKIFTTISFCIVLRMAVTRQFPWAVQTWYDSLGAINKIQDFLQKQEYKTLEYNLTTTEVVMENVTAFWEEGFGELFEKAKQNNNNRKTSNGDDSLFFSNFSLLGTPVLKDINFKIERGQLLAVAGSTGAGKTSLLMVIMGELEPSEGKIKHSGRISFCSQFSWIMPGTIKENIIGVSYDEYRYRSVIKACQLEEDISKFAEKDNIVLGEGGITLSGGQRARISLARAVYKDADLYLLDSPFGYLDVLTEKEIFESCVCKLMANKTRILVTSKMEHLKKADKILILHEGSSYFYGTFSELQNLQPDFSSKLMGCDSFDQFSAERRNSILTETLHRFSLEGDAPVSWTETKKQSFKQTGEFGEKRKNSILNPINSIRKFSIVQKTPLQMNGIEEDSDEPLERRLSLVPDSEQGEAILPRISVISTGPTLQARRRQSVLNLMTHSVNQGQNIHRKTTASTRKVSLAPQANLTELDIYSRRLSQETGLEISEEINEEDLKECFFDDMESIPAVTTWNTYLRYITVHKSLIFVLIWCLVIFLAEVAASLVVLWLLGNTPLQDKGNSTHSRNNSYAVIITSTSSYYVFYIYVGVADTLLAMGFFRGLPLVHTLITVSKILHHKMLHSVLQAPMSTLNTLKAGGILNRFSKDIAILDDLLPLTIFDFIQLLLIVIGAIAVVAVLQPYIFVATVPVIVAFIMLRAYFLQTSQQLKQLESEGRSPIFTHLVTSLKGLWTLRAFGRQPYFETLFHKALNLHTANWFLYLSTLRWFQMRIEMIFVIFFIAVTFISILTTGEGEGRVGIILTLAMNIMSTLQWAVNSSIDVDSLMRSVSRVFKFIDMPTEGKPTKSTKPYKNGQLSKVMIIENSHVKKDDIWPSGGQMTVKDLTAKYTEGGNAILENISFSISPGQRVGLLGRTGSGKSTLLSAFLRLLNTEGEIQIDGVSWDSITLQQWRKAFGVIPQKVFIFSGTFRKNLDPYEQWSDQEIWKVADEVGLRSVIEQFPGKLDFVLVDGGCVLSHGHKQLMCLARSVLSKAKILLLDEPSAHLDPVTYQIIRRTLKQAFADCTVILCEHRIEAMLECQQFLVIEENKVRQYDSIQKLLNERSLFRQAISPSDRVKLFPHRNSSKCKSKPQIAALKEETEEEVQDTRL

For `COc1ccccc1Cn1c(C)ns/c1=N\C(=N\c1ccccc1)c1ccccc1` [Compound 27, (E)-N-((Z)-4-(2-Methoxybenzyl)-3-methyl-1,2,4-thiadiazol-5(4H)-ylidene)-N′-phenylbenzimidamide], the “F508del-CFTR corrector activity compared with inh-2 (CFTR activity, primary screen)” value is recorded as “slight increase in activity”.
Under `Cc1ns/c(=N\C(=N\c2ccccc2)c2ccccc2)n1Cc1ccccc1Cl` [Compound 28, (E)-N-((Z)-4-(2-Chlorobenzyl)-3-methyl-1,2,4-thiadiazol-5(4H)-ylidene)-N′-phenylbenzimidamide] stands “comparable activity to the unsubstituted original hit inh-2”; under `Cc1ns/c(=N\C(=N\c2ccccc2)c2ccco2)n1Cc1ccccc1` [Compound 36, (E)-N-((Z)-4-Benzyl-3-methyl-1,2,4-thiadiazol-5(4H)-ylidene)-N′-phenylfuran-2-carboximidamide], “drop of activity”; under `Cc1ns/c(=N\C(=N\c2ccccc2)c2ccccc2)n1CCCc1ccccc1` [Compound 5, (E)-N-((Z)-3-Methyl-4-(3-phenylpropyl)-1,2,4-thiadiazol-5(4H)-ylidene)-N′-phenylbenzimidamide], “devoid of significant F508del-CFTR corrector activity”.
The same measure for `Cc1ns/c(=N\C(=N\c2ccccc2)c2ccccc2)n1Cc1ccc(Cl)cc1` [Compound 10, (E)-N-((Z)-4-(4-Chlorobenzyl)-3-methyl-1,2,4-thiadiazol-5(4H)-ylidene)-N′-phenylbenzimidamide]: “maintained the activity unaltered”; for `c1ccc(Cn2ccs/c2=N\C(=N\c2ccccc2)c2ccccc2)cc1` [Compound 46, (E)-N-((Z)-3-Benzylthiazol-2(3H)-ylidene)-N′-phenylbenzimidamide]: “abolished any corrector activity”.
Under `Cc1ns/c(=N\C(=N\Cc2ccccc2)c2ccccc2)n1Cc1ccccc1` [Compound 38, (E)-N′-Benzyl-N-((Z)-4-benzyl-3-methyl-1,2,4-thiadiazol-5(4H)-ylidene)benzimidamide] stands “inactive analogs”; under `Cc1nn(Cc2ccccc2)/c(=N/C(=N/c2ccccc2)c2ccccc2)s1` [Compound 44, (E)-N-((Z)-3-Benzyl-5-methyl-1,3,4-thiadiazol-2(3H)-ylidene)-N′-phenylbenzimidamide], “abolished any corrector activity”.
With `Cc1ns/c(=N\C(=N\c2ccccc2)c2ccccc2)n1Cc1cccc(N)c1` [Compound 20, (E)-N-((Z)-4-(3-Aminobenzyl)-3-methyl-1,2,4-thiadiazol-5(4H)-ylidene)-N′-phenylbenzimidamide], the “F508del-CFTR corrector activity compared with inh-2 (CFTR activity, primary screen)” value is on record as “decreased potency”.
Under `Cc1ns/c(=N\C(=N\c2ccccc2)c2ccccc2)n1Cc1cccc(Cl)c1` [Compound 24, (E)-N-((Z)-4-(3-Chlorobenzyl)-3-methyl-1,2,4-thiadiazol-5(4H)-ylidene)-N′-phenylbenzimidamide] stands “increased activity”; under `Cc1cccc(/N=C(/N=c2\snc(C)n2Cc2ccccc2)c2ccccc2)c1` [Compound 37, (E)-N-((Z)-4-Benzyl-3-methyl-1,2,4-thiadiazol-5(4H)-ylidene)-N′-(m-tolyl)benzimidamide], “inactive analogs”; under `Cc1ns/c(=N\C(=N\c2ccccc2)c2ccccc2)n1Cc1ccc(O)cc1` [Compound 8, (E)-N-((Z)-4-(4-Hydroxybenzyl)-3-methyl-1,2,4-thiadiazol-5(4H)-ylidene)-N′-phenylbenzimidamide], “reduced potency”.
Turning to `CCOc1cccc(Cn2c(C)ns/c2=N\C(=N\c2ccccc2)c2ccccc2)c1` [Compound 19, (E)-N-((Z)-4-(3-Ethoxybenzyl)-3-methyl-1,2,4-thiadiazol-5(4H)-ylidene)-N′-phenylbenzimidamide], the “F508del-CFTR corrector activity compared with inh-2 (CFTR activity, primary screen)” value is “did not affect the activity”.
Consider `Cc1ns/c(=N\C(=N\C2CCCCC2)c2ccccc2)n1Cc1ccccc1` [Compound 39, (E)-N-((Z)-4-Benzyl-3-methyl-1,2,4-thiadiazol-5(4H)-ylidene)-N′-cyclohexylbenzimidamide], for which the “F508del-CFTR corrector activity compared with inh-2 (CFTR activity, primary screen)” value was “inactive analogs”.
Under `COCCc1ccnc(/N=c2\snc(C)n2Cc2ccccc2)c1` [Compound 43, (Z)-4-Benzyl-N-(4-(2-methoxyethyl)pyridin-2-yl)-3-methyl-1,2,4-thiadiazol-5(4H)-imine] stands “inactive compounds”; under `Cc1ccc(Cn2c(C)ns/c2=N\C(=N\c2ccccc2)c2ccccc2)cc1` [Compound 6, (E)-N-((Z)-3-Methyl-4-(4-methylbenzyl)-1,2,4-thiadiazol-5(4H)-ylidene)-N′-phenylbenzimidamide], “maintained the activity unaltered”; under `c1ccc(Cn2ncs/c2=N\C(=N\c2ccccc2)c2ccccc2)cc1` [Compound 45, (E)-N-((Z)-3-Benzyl-1,3,4-thiadiazol-2(3H)-ylidene)-N′-phenylbenzimidamide], “abolished any corrector activity”.
